Assay results as given in the supplement of paper PMC10307832.

How the values were obtained:
Experiment in all cases: relative viability (nuclei count vs DMSO), 5 days (fraction); higher = more cells survive
Obatoclax + Foretinib = compound: COC1=CC(c2cc3ccccc3[nH]2)=N/C1=C\c1[nH]c(C)cc1C [Obatoclax] + COc1cc2c(Oc3ccc(NC(=O)C4(C(=O)Nc5ccc(F)cc5)CC4)cc3F)ccnc2cc1OCCCN1CCOCC1 [Foretinib] (partner 0.25 µM)
In short: (§1)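 Nuclei were stained with Hoechst during a one-step fixation (final 0.05% Triton X-100, 1% formaldehyde, 1 ug/ml Hoechst) carried out 5 days after dosing, then counted on 4× images. The cells, lung cancer lines in 1536-well plates, had been dosed by pin tool the day after seeding with one drug alone or a fixed anchor-drug dose plus five library-drug doses (not always all listed) in √10 steps. Relative viability is the nuclei count in treated wells divided by that in vehicle wells, and each value is the median of duplicate plates.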

Bortezomib + Tozasertib = compound: CC(C)C[C@H](NC(=O)[C@H](Cc1ccccc1)NC(=O)c1cnccn1)B(O)O [Bortezomib] + Cc1cc(Nc2cc(N3CCN(C)CC3)nc(Sc3ccc(NC(=O)C4CC4)cc3)n2)n[nH]1 [Tozasertib] (partner 0.1 µM)
In short: as §1

Obatoclax + Alpelisib = compound: COC1=CC(c2cc3ccccc3[nH]2)=N/C1=C\c1[nH]c(C)cc1C [Obatoclax] + Cc1nc(NC(=O)N2CCC[C@H]2C(N)=O)sc1-c1ccnc(C(C)(C)C(F)(F)F)c1 [Alpelisib] (partner 2 µM)
In short: as §1

[1] = compound: CC1=CC(=NN1)NC2=CC(=NC(=N2)/C=C/C3=CC=CC=C3)N4CCN(CC4)C + CC(=O)Nc1cccc(-n2c(=O)n(C3CC3)c(=O)c3c(Nc4ccc(I)cc4F)n(C)c(=O)c(C)c32)c1 [Trametinib] (partner 0.02 µM)
In short: as §1

| Cell Line | relative viability (Obatoclax + Foretinib; first compound 0.01 µM) | relative viability (Obatoclax + Foretinib; first compound 0.03162 µM) | relative viability (Obatoclax + Foretinib; first compound 0.1 µM) | relative viability (Obatoclax + Foretinib; first compound 0.3162 µM) | relative viability (Obatoclax + Foretinib; first compound 1 µM) | relative viability (Bortezomib + Tozasertib; first compound 0.0002 µM) | relative viability (Bortezomib + Tozasertib; first compound 0.000632 µM) | relative viability (Bortezomib + Tozasertib; first compound 0.002 µM) | relative viability (Bortezomib + Tozasertib; first compound 0.006325 µM) | relative viability (Bortezomib + Tozasertib; first compound 0.02 µM) | relative viability (Obatoclax + Alpelisib; first compound 0.01 µM) | relative viability (Obatoclax + Alpelisib; first compound 0.03162 µM) | relative viability (Obatoclax + Alpelisib; first compound 0.3162 µM) | relative viability (Obatoclax + Alpelisib; first compound 1 µM) | relative viability ([1]; first compound 0.08 µM) | relative viability ([1]; first compound 0.253 µM) | relative viability ([1]; first compound 0.8 µM) | relative viability ([1]; first compound 2.53 µM) | relative viability ([1]; first compound 8 µM) | relative viability (Obatoclax + Alpelisib; first compound 0.1 µM) |
| --- | --- | --- | --- | --- | --- | --- | --- | --- | --- | --- | --- | --- | --- | --- | --- | --- | --- | --- | --- | --- |
| HCC-78 | 0.532 | 0.53 | 0.608 | 0.553 | 0.59 | 0.488 | 0.331 | 0.41 | 0.236 | 0.209 | 0.314 | 0.35 | 0.26 | 0.321 | 0.763 | 0.605 | 0.877 | 0.647 | 0.324 |  |
| HCC-366 | 0.932 | 0.922 | 0.916 | 0.549 | 0.919 | 0.13 | 0.115 | 0.094 | 0.0548 | 0.0273 | 0.382 | 0.363 | 0.396 | 0.233 | 0.334 | 0.372 | 0.253 | 0.0375 | 0.0236 | 0.366 |
| HCC-827 | 1.01 | 1.04 | 1.08 | 0.964 | 1.05 | 0.418 | 0.447 | 0.419 | 0.12 | 0.0981 | 0.949 | 0.931 | 0.984 | 0.964 | 0.507 | 0.405 | 0.513 | 0.427 | 0.273 | 0.957 |
| HOP-62 | 1.16 | 0.933 | 1.11 | 1.04 | 1.06 | 0.354 | 0.391 | 0.292 | 0.0719 | 0.0538 | 0.903 | 0.771 | 1.02 | 1.21 | 0.382 | 0.297 | 0.36 | 0.337 | 0.163 | 0.951 |
| LC-2-ad | 0.997 | 0.876 | 0.869 | 0.897 | 0.525 | 0.447 | 0.477 | 0.328 | 0.217 | 0.199 | 0.892 | 0.931 | 0.477 | 0.655 | 0.873 | 0.89 | 0.868 | 0.463 | 0.196 | 0.884 |
| LCLC-97TM1 | 0.996 | 0.954 | 0.873 | 0.872 | 0.9 | 0.289 | 0.204 | 0.25 | 0.131 | 0.14 | 0.27 | 0.232 | 0.227 | 0.293 | 0.186 | 0.142 | 0.209 | 0.182 | 0.0966 | 0.283 |
| LCLC-103H | 0.792 | 0.698 | 0.778 | 0.668 | 0.8 |  | 0.485 | 0.251 | 0.147 | 0.128 | 0.938 | 0.907 | 0.961 | 1.02 | 0.667 | 0.641 | 0.677 | 0.651 | 0.528 | 0.97 |
| LK-2 | 1.12 | 1.28 | 1.51 | 1.26 | 1.11 | 0.182 | 0.191 | 0.173 | 0.157 | 0.161 | 1.07 | 1.13 | 1.07 | 1.03 | 0.836 | 0.48 | 0.697 | 0.417 | 0.129 | 1.43 |
